Experimental data reported in US8580921B2, “Protein nanorings” (University of Minnesota, priority 2005, dated 2013).

Tests used:
[1] = system: Daudi cells; conditions: 2 hr incubation; cited from earlier work
[2] = humans; cited from earlier work
[3] = given orally to mice; cited from earlier work
[4] = system: 39 human tumor cell lines; conditions: cited from earlier work
[5] = SEC of isolated DHFR^2 oligomers after storage or dilution; assay type: physicochemical; conditions: oligomers with MTX^2-C9 isolated by SEC (dimers, tetramers, octamers), stored 2 weeks at 4° C.
Description: SEC was employed to initially assess the degree of DHFR^2 induced oligomerization by MTX^2. The purified DHFR^2-13 (10 uM) and MTX^2-C9 were mixed at a range of stoichiometries, allowed to equilibrate for one hour, and assayed by size exclusion chromatography on a Superdex G75 Column (Amersham).
Assemblies of this size, however, approach or exceed the exclusion limit of the G75 matrix, preventing definitive assignment of the molecular weight and oligomer number. The dimeric fraction increased at the expense of the larger oligomers with time, becoming the dominant species. […] For DHFR^2-3, tetramers were the dominant species, further increasing with time. […] In addition, in contrast to the expected result from linear oligomers, no observable change in composition was observed when oligomer samples were dilution to a concentration of 5 nM.

COc1cccc2c1C(=O)c1c(O)c3c(c(O)c1C2=O)C[C@@](O)(C(=O)CO)C[C@@H]3O[C@H]1C[C@H](N)[C@H](O)[C@H](C)O1 [doxorubicin]
IC50 [1]: 225 ± 35 nM

COc1cc(Cc2cnc(N)nc2N)cc(OC)c1OC [trimethoprim]
half-life [2]: 11 h | LD50 [3]: greater than 3 grams/kg

auristatin
IC50 [1]: 4.6 ± 4.3 nM | IC50 [4]: 3.2 ± 0.51 nM

B1: DHFR^2-3: E. coli DHFR-DHFR fusion protein with 3 amino acid linker (GGT) (protein)
chain: MISLIAALAVDRVIGMENAMPWNLPADLAWFKRNTLNKPVIMGRHTWESIGRPLPGRKNIILSSQPGTDDRVTWVKSVDEAIAACGDVPEIMVIGGGRVYEQFLPKAQKLYLTHIDAEVEGDTHFPDYEPDDWESVFSEFHDADAQNSHSYCFEILERRGGTMISLIAALAVDRVIGMENAMPWNLPADLAWFKRNTLNKPVIMGRHTWESIGRPLPGRKNIILSSQPGTDDRVTWVKSVDEAIAACGDVPEIMVIGGGRVYEQFLPKAQKLYLTHIDAEVEGDTHFPDYEPDDWESVFSEFHDADAQNSHSYCFEILERR
modifications: left off: small tags and cut ends
oligomer composition on re-injection after storage [5]: no change in the oligomer composition

B2: DHFR^2-13: two wild-type E. coli DHFR modules separated by a 13 (GLG5LVPRGT) amino acid linker (protein)
chain: MISLIAALAVDRVIGMENAMPWNLPADLAWFKRNTLNKPVIMGRHTWESIGRPLPGRKNIILSSQPGTDDRVTWVKSVDEAIAACGDVPEIMVIGGGRVYEQFLPKAQKLYLTHIDAEVEGDTHFPDYEPDDWESVFSEFHDADAQNSHSYCFEILERRGLGGGGGLVPRGTMISLIAALAVDRVIGMENAMPWNLPADLAWFKRNTLNKPVIMGRHTWESIGRPLPGRKNIILSSQPGTDDRVTWVKSVDEAIAACGDVPEIMVIGGGRVYEQFLPKAQKLYLTHIDAEVEGDTHFPDYEPDDWESVFSEFHDADAQNSHSYCFEILERR
modifications: left off: small tags and cut ends
oligomer composition on re-injection after storage [5]: no change in the oligomer composition

B3: DHFR^2-1G: E. coli DHFR-DHFR fusion protein with 1 (G) amino acid linker (protein)
chain: MISLIAALAVDRVIGMENAMPWNLPADLAWFKRNTLNKPVIMGRHTWESIGRPLPGRKNIILSSQPGTDDRVTWVKSVDEAIAACGDVPEIMVIGGGRVYEQFLPKAQKLYLTHIDAEVEGDTHFPDYEPDDWESVFSEFHDADAQNSHSYCFEILERRGMISLIAALAVDRVIGMENAMPWNLPADLAWFKRNTLNKPVIMGRHTWESIGRPLPGRKNIILSSQPGTDDRVTWVKSVDEAIAACGDVPEIMVIGGGRVYEQFLPKAQKLYLTHIDAEVEGDTHFPDYEPDDWESVFSEFHDADAQNSHSYCFEILERR
modifications: left off: small tags and cut ends
notes: E. coli DHFR-DHFR fusion protein with 1 (G) amino acid linker
oligomer composition on re-injection after storage [5]: no change in the oligomer composition
